Data as given in patent US20230256004A1, “COMPOSITIONS AND METHODS FOR TREATING MOOD DISORDERS AND CIRCADIAN RHYTHM SLEEP DISORDERS” (Light Aqua LLC, priority 2020, published 2023).

Key:
one-celled algae = conditions: in vivo; cited from earlier work
rats and mice = conditions: cited from earlier work
humans [1] = conditions: cited from earlier work
rest/activity clock = conditions: cited from earlier work
[2] = system: circadian rest/activity cycle; conditions: cited from earlier work
[3] = system: Major Depressive Disorder; assay: proposed treatment of Major Depressive Disorder with deuterium oxide/scopolamine solution; assay type: in vivo, human; conditions: Major Depressive Disorder subjects; proposed experiment
fish and tadpoles = conditions: cited from earlier work
humans [4] = conditions: acute treatment; 1% of total body water versus 15% toxic
mammals = conditions: in vivo; cited from earlier work
[5] = in vivo; cited from earlier work

[2H]O[2H] [deuterium oxide]
deuterium oxide concentration survived long-term (one-celled algae): 100%
body water replacement at which intoxication signs and symptoms occur (rats and mice; in vivo): over 15%
deuterium oxide concentration recommended as safe long term (rats and mice; in vivo): 5%
body water deuterium oxide concentration producing coma and then death (rats and mice; rats and mice): 30-35%
concentration in human fluids found not to be toxic over short time periods (humans [1]; humans, Wallace 1995): ≤ 23%
acute replacement of total body water with no evident adverse effects (humans [1]; in vivo): 15-23%
adverse effects (humans [1]; in vivo): no adverse effects
adverse effects after one liter (humans [1]; in vivo): severe vertigo with emesis
deuterium oxide concentration considered safe long term (humans [1]; in vivo): 1%
dose at which positional ocular nystagmus was observed (humans [1]; in vivo): 25 to 50 mL
duration of nystagmus (humans [1]; in vivo): up to 140 minutes
harmful effects in babies (humans [1]; in vivo): no observed harmful effects
onset of nystagmus post ingestion (humans [1]; in vivo): about 20 minutes
onset of vertigo after dose (humans [1]; in vivo): 30 min
reactions to deuterium oxide (humans [1]; in vivo): short-term vertigo in two of the subjects
sensitivity of humans to toxic effects compared to mice (humans [1]; in vivo): roughly 5 times
threshold dosage for noticeable side-effects (humans [1]; in vivo): 70 to 140 g
total body water concentration considered toxic threshold (humans [1]; in vivo): ≥ 15%
deuterium oxide concentration at which circadian rhythm began to fluctuate (rest/activity clock; hamsters, Richter 1977): 5%
drinking-water deuterium oxide concentration at which rest/activity cycle was freed from entrainment by light/dark (rest/activity clock; hamsters, Richter 1977): 10%
slowing of circadian rhythms per 5% deuterium oxide concentration increase in total body water (rest/activity clock; hamsters, on average, linear response, no lower threshold): about 1%
deuterium oxide concentration at which circadian rhythm began to fluctuate, one hamster (rest/activity clock; one hamster, Richter 1977): 1%
time for chronomutagenic effect to take effect ([2]; mice, 5% deuterium oxide, Dowse 1972): ≤ 24 h
increase in period length of the activity rest cycle ([2]; white mice, maximum 30% deuterium oxide dose administered, Suter and Rawson 1968): ≤ 6%
predicted time for treatment regimen to take effect [3]: ≤ 2 days
heavy water concentration survived long-term (fish and tadpoles): 30%
estimated Therapeutic Index (ratio of toxic dose to therapeutic dose) (humans [4]): about 15
drinking water concentration of deuterium oxide safe long term (mammals): 5%
elimination half-life [5]: up to 10 days
metabolites [5]: no metabolites
